In one assay the test system is SKBR3 cells. The assay can be described thus: SKBR3 Cell Viability Assay. In kind it is cell-based. Conditions: CellTiter Glo, read-out: MCL1 CV SKBR3 EC50. In outline:
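SKBR3 cells (6,000/well, McCoy's 5A + 10% FBS) were added onto pre-spotted serial compound dilutions and incubated 72 h at 37° C, 5% CO2. Viability was read by CellTiter-Glo luminescence, with % inhibition normalised to DMSO (negative) and 10 μM puromycin (positive).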

A further assay addresses MCL1/Bim (Homo sapiens (Human), UniProt Q07820). The assay can be described thus: MCL1/Bim Binding AlphaLISA Assay. Conditions: recombinant human 6xHis-MCL1 (171-327), biotinylated Bim peptide (51-76). In outline:
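AlphaLISA with 0.0625 nM human 6×His-MCL1 (171-327) and 0.0625 nM biotinylated Bim (51-76) peptide in 20 mM Hepes pH 7.5, 150 mM NaCl, 0.002% Brij 35, 1 mM DTT, 0.01% BSA. Compound preincubated with MCL1 1 h, Bim added 2 h, then acceptor and donor beads 1 h each; % inhibition versus DMSO and no-protein/peptide controls.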
On the technique in general: Alpha assays give light when donor and acceptor beads are brought close together.

The mark [1] stands for this setting: Homo sapiens, SK-BR-3, 72 hours.

Broadly, the EC50 is the concentration at which the effect is half-maximal. Usually IC50 stands for the concentration that inhibits the measured activity by half.

Read-outs that look alike come from different tables or passages of the source.

Sequence of MCL1/Bim (Q07820 171-327): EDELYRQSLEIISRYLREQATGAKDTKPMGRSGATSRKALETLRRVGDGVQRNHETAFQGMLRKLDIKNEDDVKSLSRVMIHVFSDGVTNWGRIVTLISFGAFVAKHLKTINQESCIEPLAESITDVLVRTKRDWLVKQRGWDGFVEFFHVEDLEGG

On to `COc1nn(C)cc1C(=O)N[S@@]1(=O)=NC(=O)c2ccc3c(c2)N(C[C@@H]2CC[C@H]2[C@](O)(CC(=O)N2CCN(C)CC2)/C=C/C[C@H](C)C1)C[C@@]1(CCCc2cc(Cl)ccc21)CO3` [Example 101], for which, in the assay with SKBR3 cells (72 hours), the EC50 turned out to be 27 nM. Further, on MCL1/Bim, the IC50 amounted to 0.026 nM.
On the same counts, the results for `COc1nn(C)cc1C(=O)N[S@@]1(=O)=NC(=O)c2ccc3c(c2)N(C[C@@H]2CC[C@H]2[C@@](O)(CC(=O)N2CCN4CCOCC4C2)/C=C/C[C@H](C)C1)C[C@@]1(CCCc2cc(Cl)ccc21)CO3` (stereo partly shown) [Example 102] are 16.1 nM and 0.026 nM.
On the same counts, the results for `COc1nn(C)cc1C(=O)N[S@@]1(=O)=NC(=O)c2ccc3c(c2)N(C[C@@H]2CC[C@H]2[C@](O)(CC(=O)N2CCN4CCOCC4C2)/C=C/C[C@H](C)C1)C[C@@]1(CCCc2cc(Cl)ccc21)CO3` (stereo partly shown) [Example 103] are 34.6 nM and 0.074 nM.
Take `COc1nn(C)cc1C(=O)N[S@@]1(=O)=NC(=O)c2ccc3c(c2)N(C[C@@H]2CC[C@H]2[C@@](O)(CC(=O)N2CCN(C4COC4)CC2)/C=C/C[C@H](C)C1)C[C@@]1(CCCc2cc(Cl)ccc21)CO3` [Example 104]: in the assay on SKBR3 cells (72 hours), the EC50 turned out to be 54 nM. The IC50 on MCL1/Bim was 0.034 nM.
The corresponding values for `COc1nn(C)cc1C(=O)N[S@@]1(=O)=NC(=O)c2ccc3c(c2)N(C[C@@H]2CC[C@H]2[C@](O)(CC(=O)N2CCN(C4COC4)CC2)/C=C/C[C@H](C)C1)C[C@@]1(CCCc2cc(Cl)ccc21)CO3` [Example 105] are 163 nM and 0.112 nM.
The corresponding values for `COc1nn(C)cc1C(=O)N[S@@]1(=O)=NC(=O)c2ccc3c(c2)N(C[C@@H]2CC[C@H]2[C@@](O)(CC(=O)N2CC(N4CCOCC4)C2)/C=C/C[C@H](C)C1)C[C@@]1(CCCc2cc(Cl)ccc21)CO3` [Example 106] are 133 nM and 0.038 nM.
`COc1nn(C)cc1C(=O)N[S@@]1(=O)=NC(=O)c2ccc3c(c2)N(C[C@@H]2CC[C@H]2[C@@](O)(C#CCN(C)C)/C=C/C[C@H](C)C1)C[C@@]1(CCCc2cc(Cl)ccc21)CO3` [Example 108]: in the assay on SKBR3 cells (72 hours), the EC50 amounted to 6 nM. For the same compound, on MCL1/Bim, the IC50 was 0.048 nM.
On the same counts, the results for `COc1nn(C)cc1C(=O)N[S@@]1(=O)=NC(=O)c2ccc3c(c2)N(C[C@@H]2CC[C@H]2[C@](O)(C#CCN(C)C)/C=C/C[C@H](C)C1)C[C@@]1(CCCc2cc(Cl)ccc21)CO3` [Example 109] are 35.3 nM and 0.028 nM.
With `COc1nn(C)cc1C(=O)N[S@@]1(=O)=NC(=O)c2ccc3c(c2)N(C[C@@H]2CC[C@H]2C(O)(C#CCN(C)C)/C=C/C[C@H](C)C1)C[C@@]1(CCCc2cc(Cl)ccc21)CO3` (stereo partly shown) [Example 110], the concentration giving a half-maximal response (EC50) in the assay with SKBR3 cells (72 hours) is 27.6 nM. In addition, the IC50 at MCL1/Bim was 0.045 nM.
Regarding `COc1nn(C)cc1C(=O)N[S@@]1(=O)=NC(=O)c2ccc3c(c2)N(C[C@@H]2CC[C@H]2[C@](CN2CCN4CCOC[C@@H]4C2)(OC)/C=C/C[C@H](C)C1)C[C@@]1(CCCc2cc(Cl)ccc21)CO3` [Example 111], the EC50 in the assay on SKBR3 cells (setting [1]) came out at 26.3 nM. For the same compound, the IC50 at MCL1/Bim was 0.211 nM.
On the same counts, the results for `COc1nn(C)cc1C(=O)N[S@@]1(=O)=NC(=O)c2ccc3c(c2)N(C[C@@H]2CC[C@H]2[C@@](CN2CCN4CCOC[C@@H]4C2)(OC)/C=C/C[C@H](C)C1)C[C@@]1(CCCc2cc(Cl)ccc21)CO3` [Example 112] are 10.4 nM and 0.086 nM.
`COc1nn(C)cc1C(=O)N[S@@]1(=O)=NC(=O)c2ccc3c(c2)N(C[C@@H]2CC[C@H]2[C@@](O)(CCN2CCOCC2)/C=C/C[C@H](C)C1)C[C@@]1(CCCc2cc(Cl)ccc21)CO3` [Example 113]: the EC50 in the assay with SKBR3 cells (72 hours) is 35.4 nM. Moreover, the IC50 on MCL1/Bim is 0.132 nM.
On the same counts, the results for `COc1nn(C)cc1C(=O)N[S@@]1(=O)=NC(=O)c2ccc3c(c2)N(C[C@@H]2CC[C@H]2[C@](O)(CCN2CCOCC2)/C=C/C[C@H](C)C1)C[C@@]1(CCCc2cc(Cl)ccc21)CO3` [Example 114] are 51 nM and 0.319 nM.
Consider `COc1nn(C)cc1C(=O)N[S@@]1(=O)=NC(=O)c2ccc3c(c2)N(C[C@@H]2CC[C@H]2[C@](CN2CCN(C4COC4)CC2)(OC)/C=C/C[C@H](C)C1)C[C@@]1(CCCc2cc(Cl)ccc21)CO3` [Example 115], for which the EC50 with SKBR3 cells (setting [1]) was 16 nM. In addition, the IC50 at MCL1/Bim is 0.029 nM.
On the same counts, the results for `COc1nn(C)cc1C(=O)N[S@@]1(=O)=NC(=O)c2ccc3c(c2)N(C[C@@H]2CC[C@H]2[C@@](CN2CCN(C4COC4)CC2)(OC)/C=C/C[C@H](C)C1)C[C@@]1(CCCc2cc(Cl)ccc21)CO3` [Example 116] are 13.4 nM and 0.102 nM.
On the same counts, the results for `COc1nn(C)cc1C(=O)N[S@@]1(=O)=NC(=O)c2ccc3c(c2)N(C[C@@H]2CC[C@H]2[C@@](CN2CC(OC)C2)(OC)/C=C/C[C@H](C)C1)C[C@@]1(CCCc2cc(Cl)ccc21)CO3` [Example 117] are 23.9 nM and 0.067 nM.
With `COc1nn(C)cc1C(=O)N[S@@]1(=O)=NC(=O)c2ccc3c(c2)N(C[C@@H]2CC[C@H]2[C@@H](OC)/C=C/[C@H](NC(C)=O)[C@H](C)C1)C[C@@]1(CCCc2cc(Cl)ccc21)CO3` [Example 118], the EC50 with SKBR3 cells (72 hours) worked out at 2520 nM. Moreover, the 50% inhibitory concentration (IC50) at MCL1/Bim came out at 0.634 nM.
On the same counts, the results for `COc1nn(C)cc1C(=O)N[S@@]1(=O)=NC(=O)c2ccc3c(c2)N(C[C@@H]2CC[C@H]2/C=C/[C@@H](O)[C@H](NC(C)=O)[C@H](C)C1)C[C@@]1(CCCc2cc(Cl)ccc21)CO3` [Example 119] are 244 nM and 0.035 nM.
On the same counts, the results for `COc1nn(C)cc1C(=O)N[S@@]1(=O)=NC(=O)c2ccc3c(c2)N(C[C@@H]2CC[C@H]2[C@@H](OC)/C=C/[C@@](C)(O)[C@H](C)C1)C[C@@]1(CCCc2cc(Cl)ccc21)CO3` [Example 120] are 35.2 nM and 0.034 nM.
In the case of `COc1nn(C)cc1C(=O)N[S@@]1(=O)=NC(=O)c2ccc3c(c2)N(C[C@@H]2CC[C@H]2[C@H](OC)/C=C/[C@@](C)(O)[C@H](C)C1)C[C@@]1(CCCc2cc(Cl)ccc21)CO3` [Example 121], in the assay with SKBR3 cells (72 hours), the EC50 stood at 67.9 nM. In addition, the IC50 on MCL1/Bim was 0.047 nM.
On to `COc1nn(C)cc1C(=O)N[S@@]1(=O)=NC(=O)c2ccc3c(c2)N(C[C@@H]2CC[C@H]2[C@@H](OC)/C=C/[C@@](C)(OC)[C@H](C)C1)C[C@@]1(CCCc2cc(Cl)ccc21)CO3` [Example 122], for which, in the assay on SKBR3 cells (setting [1]), the EC50 turned out to be 17.7 nM. Besides, the IC50 at MCL1/Bim was determined as 0.03 nM.
On the same counts, the results for `COc1nn(C)cc1C(=O)N[S@@]1(=O)=NC(=O)c2ccc3c(c2)N(C[C@@H]2CC[C@H]2[C@@H](OC)/C=C/[C@](C)(OC)[C@H](C)C1)C[C@@]1(CCCc2cc(Cl)ccc21)CO3` [Example 123] are 69.7 nM and 0.135 nM.
Consider `COc1nn(C)cc1C(=O)N[S@@]1(=O)=NC(=O)c2ccc3c(c2)N(C[C@@H]2CC[C@H]2/C=C/C=C\[C@H](C)C1)C[C@@]1(CCCc2cc(Cl)ccc21)CO3` [Example 131], for which, in the assay with SKBR3 cells (setting [1]), the EC50 came out at 546 nM. Also, the IC50 at MCL1/Bim turned out to be 0.087 nM.
The corresponding values for `COc1nn(C)cc1C(=O)N[S@@]1(=O)=NC(=O)c2ccc3c(c2)N(C[C@@H]2CC[C@H]2[C@H](OC)[C@@H](OC)/C=C\[C@H](C)C1)C[C@@]1(CCCc2cc(Cl)ccc21)CO3` [Example 132] are 1020 nM and 0.833 nM.
With `COc1nn(C)cc1C(=O)N[S@@]1(=O)=NC(=O)c2ccc3c(c2)N(C[C@@H]2CC[C@H]2[C@@H](OC)[C@H](OC)/C=C\[C@H](C)C1)C[C@@]1(CCCc2cc(Cl)ccc21)CO3` [Example 133], the EC50 in the assay with SKBR3 cells (setting [1]) turned out to be 1370 nM. Also, the IC50 on MCL1/Bim was found to be 0.643 nM.
In the case of `COc1nn(C)cc1C(=O)N[S@@]1(=O)=NC(=O)c2ccc3c(c2)N(C[C@@H]2CC[C@H]2[C@@H](OC)[C@H]2CN(C)[C@H]4CO[C@H](C(C)C1)[C@@H]24)C[C@@]1(CCCc2cc(Cl)ccc21)CO3` (stereo partly shown) [Example 134], the EC50 in the assay with SKBR3 cells (72 hours) amounted to 101 nM. Also, the IC50 at MCL1/Bim came out at 0.069 nM.
Turning to `COc1nn(C)cc1C(=O)N[S@@]1(=O)=NC(=O)c2ccc3c(c2)N(C[C@@H]2CC[C@H]2[C@@H](OC)C[C@H]2CCO[C@@H]2[C@H](C)C1)C[C@@]1(CCCc2cc(Cl)ccc21)CO3` [Example 135], the EC50 in the assay on SKBR3 cells (setting [1]) turned out to be 92.2 nM. Further, the IC50 on MCL1/Bim came out at 0.057 nM.
On the same counts, the results for `COc1nn(C)cc1C(=O)N[S@@]1(=O)=NC(=O)c2ccc3c(c2)N(C[C@@H]2CC[C@H]2[C@H]2OCC[C@@H]2CC[C@H](C)C1)C[C@@]1(CCCc2cc(Cl)ccc21)CO3` [Example 136] are 67.2 nM and 0.096 nM.
The corresponding values for `COc1nn(C)cc1C(=O)N[S@@]1(=O)=NC(=O)c2ccc3c(c2)N(C[C@@H]2CC[C@H]2[C@@H](OC)C[C@H]2CC(O)O[C@@H]2[C@H](C)C1)C[C@@]1(CCCc2cc(Cl)ccc21)CO3` (stereo partly shown) [Example 139] are 198 nM and 0.071 nM.
On the same counts, the results for `COc1nn(C)cc1C(=O)N[S@@]1(=O)=NC(=O)c2ccc3c(c2)N(C[C@@H]2CC[C@H]2[C@@H](OC)C[C@H]2CC(=O)O[C@@H]2[C@H](C)C1)C[C@@]1(CCCc2cc(Cl)ccc21)CO3` [Example 140] are 138 nM and 0.067 nM.
For the compound `C=CC[C@@H]1C[C@@H]2C[C@H](OC)[C@@H]3CC[C@H]3CN3C[C@@]4(CCCc5cc(Cl)ccc54)CCc4ccc(cc43)C(=O)N=[S@](=O)(NC(=O)c3cn(C)nc3OC)C[C@@H](C)[C@H]2O1` [Example 141], the EC50 with SKBR3 cells (72 hours) was 882 nM. The IC50 at MCL1/Bim came to 0.677 nM.
On the same counts, the results for `COc1nn(C)cc1C(=O)N[S@@]1(=O)=NC(=O)c2ccc3c(c2)N(C[C@@H]2CC[C@H]2[C@@H](OC)C[C@H]2C[C@H](CCN(C)C)O[C@@H]2[C@H](C)C1)C[C@@]1(CCCc2cc(Cl)ccc21)CO3` [Example 142] are 106 nM and 0.06 nM.

(Values after patent US11667652B2, “MCL1 inhibitors” (Gilead Sciences, Inc., priority 2019, dated 2023).)
